Data on 7 molecules can be found in patent publication US11034650B2, “Compounds useful for treating a Mannheimia haemolytica or Histophilus somni infection” (Intervet Inc., priority 2016, dated 2021).

Common to all, as to format: cell-based
The test system of experiment [1] is Pasteurella multocida PM 6391 (ATCC 43137, reference strain). As to the kind of experiment: MIC, broth-microdilution (CLSI VET01-A4), strain PM 6391. The following applies: Pasteurella multocida strain PM 6391, broth-microdilution; unit assumed. An outline of the steps:
(§1)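 Broth microdilution per CLSI VET01-A4, using trays with a doubling dilution series of compound; results interpreted per CLSI VET01-S3. MIC taken as lowest concentration with no turbidity visible to the unaided eye.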

For experiment [2], the system named is Pasteurella multocida PM 12080 (IV102277-0093, BRD field isolate). Description: MIC, broth-microdilution (CLSI VET01-A4), strain PM 12080. The conditions noted are these: Pasteurella multocida strain PM 12080, broth-microdilution; unit assumed. An outline of the steps:
as §1
(In general: In broth dilution the organism is exposed to a series of concentrations in liquid medium.)

For experiment [3], the system named is Pasteurella multocida PM 6267 (P 2225 (L386), reference strain, mouse infection strain). As to the kind of experiment: MIC, broth-microdilution (CLSI VET01-A4), strain PM 6267. The following applies: Pasteurella multocida strain PM 6267, broth-microdilution; unit assumed. Summed up: as §1
In experiment [4] the test system is Mannheimia haemolytica MH 12587 (1071, BRD field isolate, macrolide-resistance: erm+, E+). As to the kind of experiment: MIC, broth-microdilution (CLSI VET01-A4), strain MH 12587. The following applies: Mannheimia haemolytica strain MH 12587, broth-microdilution; unit assumed. An outline of the steps: as §1
Experiment [5] relates to Mannheimia haemolytica MH 10720 (154, BRD field isolate). As to the kind of experiment: MIC, broth-microdilution (CLSI VET01-A4), strain MH 10720. The following applies: Mannheimia haemolytica strain MH 10720, broth-microdilution; unit assumed. An outline of the steps: as §1
The subject of experiment [6] is Mannheimia haemolytica MH 13065 (XB0446-6003.9, BRD field isolate). As to the kind of experiment: MIC, broth-microdilution (CLSI VET01-A4), strain MH 13065. The following applies: Mannheimia haemolytica strain MH 13065, broth-microdilution; unit assumed. An outline of the steps: as §1
Experiment [7] has as its system Pasteurella multocida PM 10775 (080130003051, BRD field isolate). Description: MIC, broth-microdilution (CLSI VET01-A4), strain PM 10775. The following applies: Pasteurella multocida strain PM 10775, broth-microdilution; unit assumed. An outline of the steps:
as §1

Experiment [8] has as its system Mannheimia haemolytica MH 13093 (XB0472-6014.1, BRD field isolate). As to the kind of experiment: MIC, broth-microdilution (CLSI VET01-A4), strain MH 13093. The following applies: Mannheimia haemolytica strain MH 13093, broth-microdilution; unit assumed. An outline of the steps:
as §1

Experiment [9] relates to Mannheimia haemolytica MH 6374 (ATCC 33396, reference strain). Description: MIC, broth-microdilution (CLSI VET01-A4), strain MH 6374. The conditions noted are these: Mannheimia haemolytica strain MH 6374, broth-microdilution; unit assumed. An outline of the steps:
as §1

In experiment [10] the test system is Mannheimia haemolytica MH 6357 (M7/2, reference strain, cattle infection strain). As to the kind of experiment: MIC, broth-microdilution (CLSI VET01-A4), strain MH 6357. The following applies: Mannheimia haemolytica strain MH 6357, broth-microdilution; unit assumed. An outline of the steps: as §1

In brackets after ≈: the same amount, converted by molar mass.

In experiment [1], `CC[C@H](C)[C@H](NC(=O)c1ccc(C#Cc2ccc(CN3CC(C)OC(C)C3)cc2)cc1)C(=O)NO` (stereo partly shown) [Compound 191] yielded an MIC PM 6391 of at most 0.1 µg/mL. In experiment [2], the MIC PM 12080 is at most 0.1 µg/mL. In experiment [3], this molecule came in with an MIC PM 6267 of at most 0.1 µg/mL. This molecule also came in with an MIC MH 12587 in [4] of 25 µg/mL (≈ 52.3 µM). In experiment [5], this molecule displayed an MIC MH 10720 of 1.6 µg/mL (≈ 3.35 µM). In addition, the MIC MH 13065 in experiment [6] amounted to 6.3 µg/mL (≈ 13.2 µM). Besides, the MIC PM 10775 in experiment [7] was at most 0.1 µg/mL. In [8], this molecule registered an MIC MH 13093 of 12.5 µg/mL (≈ 26.2 µM). The molecule also gave an MIC MH 6374 in experiment [9] of 25 µg/mL (≈ 52.3 µM). In experiment [10], this molecule yielded an MIC MH 6357 of 6.3 µg/mL (≈ 13.2 µM).
In the case of `CCCNCc1ccc(C#Cc2ccc(C(=O)N[C@H](C(=O)NO)[C@@H](C)CC)cc2)cc1` [Compound 193], the MIC PM 6391 in experiment [1] amounted to 0.8 µg/mL (≈ 1.9 µM). In experiment [2], the MIC PM 12080 was 0.4 µg/mL (≈ 0.949 µM). In experiment [3], this molecule displayed an MIC PM 6267 of 0.4 µg/mL (≈ 0.949 µM). Moreover, in experiment [4], the MIC MH 12587 was 6.3 µg/mL (≈ 14.9 µM). The molecule also registered an MIC MH 10720 in experiment [5] of 0.8 µg/mL (≈ 1.9 µM). The MIC MH 13065 in experiment [6] came to 3.1 µg/mL (≈ 7.35 µM). Moreover, the MIC PM 10775 in experiment [7] was at most 0.1 µg/mL. The molecule further had an MIC MH 13093 in [8] of 3.1 µg/mL (≈ 7.35 µM). The same molecule registered an MIC MH 6374 in experiment [9] of 6.3 µg/mL (≈ 14.9 µM). In experiment [10], this molecule gave an MIC MH 6357 of 6.3 µg/mL (≈ 14.9 µM).
In turn, `CC[C@H](C)[C@H](NC(=O)c1ccc(C#Cc2ccc(CNC3CCCCC3)cc2)cc1)C(=O)NO` [Compound 195] yielded an MIC PM 6391 in experiment [1] of 0.8 µg/mL (≈ 1.73 µM). The MIC PM 12080 in experiment [2] turned out to be 0.4 µg/mL (≈ 0.867 µM). The molecule further had an MIC PM 6267 in [3] of 0.2 µg/mL (≈ 0.433 µM). The MIC MH 12587 in [4] was 12.5 µg/mL (≈ 27.1 µM). Further, the MIC MH 10720 in experiment [5] was determined as 1.6 µg/mL (≈ 3.47 µM). Moreover, the MIC MH 13065 in experiment [6] turned out to be 6.3 µg/mL (≈ 13.6 µM). Further, in [7], the MIC PM 10775 was at most 0.1 µg/mL. Moreover, the MIC MH 13093 in experiment [8] came out at 12.5 µg/mL (≈ 27.1 µM). The MIC MH 6374 in experiment [9] was 12.5 µg/mL (≈ 27.1 µM). Further, the MIC MH 6357 in experiment [10] was 6.3 µg/mL (≈ 13.6 µM).
As to `CC[C@H](C)[C@H](NC(=O)c1ccc(C#Cc2ccc(CNC3CCCC3)cc2)cc1)C(=O)NO` [Compound 196], in experiment [1], the MIC PM 6391 came out at 0.8 µg/mL (≈ 1.79 µM). In [2], this molecule yielded an MIC PM 12080 of 0.4 µg/mL (≈ 0.894 µM). In experiment [3], this molecule gave an MIC PM 6267 of 0.2 µg/mL (≈ 0.447 µM). In experiment [4], this molecule came in with an MIC MH 12587 of 12.5 µg/mL (≈ 27.9 µM). This molecule yielded an MIC MH 10720 in experiment [5] of 1.6 µg/mL (≈ 3.57 µM). For the same molecule, the MIC MH 13065 in experiment [6] came out at 6.3 µg/mL (≈ 14.1 µM). In experiment [7], this molecule registered an MIC PM 10775 of at most 0.1 µg/mL. In experiment [8], this molecule returned an MIC MH 13093 of 12.5 µg/mL (≈ 27.9 µM). The same molecule showed an MIC MH 6374 in experiment [9] of 12.5 µg/mL (≈ 27.9 µM). In addition, the MIC MH 6357 in experiment [10] turned out to be 6.3 µg/mL (≈ 14.1 µM).
Take `CC[C@H](C)[C@H](NC(=O)c1ccc(C#Cc2ccc(CNC3CCC3)cc2)cc1)C(=O)NO` [Compound 197]: the MIC PM 6391 in [1] worked out at 0.4 µg/mL (≈ 0.923 µM). The MIC PM 12080 in experiment [2] came out at 0.2 µg/mL (≈ 0.461 µM). The molecule also yielded an MIC PM 6267 in experiment [3] of at most 0.1 µg/mL. In experiment [4], this molecule displayed an MIC MH 12587 of 6.3 µg/mL (≈ 14.5 µM). Moreover, the MIC MH 10720 in [5] came to 0.4 µg/mL (≈ 0.923 µM). The MIC MH 13065 in experiment [6] stood at 1.6 µg/mL (≈ 3.69 µM). Besides, the MIC PM 10775 in [7] is at most 0.1 µg/mL. The molecule further displayed an MIC MH 13093 in experiment [8] of 3.1 µg/mL (≈ 7.15 µM). The MIC MH 6374 in experiment [9] was 3.1 µg/mL (≈ 7.15 µM). Moreover, the MIC MH 6357 in experiment [10] worked out at 1.6 µg/mL (≈ 3.69 µM).
Regarding `COCC(C)NCc1ccc(C#Cc2ccc(C(=O)N[C@H](C(=O)NO)C(C)C)cc2)cc1` (stereo partly shown) [Compound 198], the MIC PM 6391 in experiment [1] was found to be 0.4 µg/mL (≈ 0.914 µM). The MIC PM 12080 in experiment [2] was determined as 0.2 µg/mL (≈ 0.457 µM). For the same molecule, the MIC PM 6267 in experiment [3] was at most 0.1 µg/mL. The molecule further showed an MIC MH 12587 in experiment [4] of 12.5 µg/mL (≈ 28.6 µM). In addition, the MIC MH 10720 in experiment [5] worked out at 0.8 µg/mL (≈ 1.83 µM). Moreover, the MIC MH 13065 in experiment [6] came out at 3.1 µg/mL (≈ 7.09 µM). The MIC PM 10775 in experiment [7] was at most 0.1 µg/mL. For the same molecule, the MIC MH 13093 in experiment [8] is 6.3 µg/mL (≈ 14.4 µM). The molecule further had an MIC MH 6374 in experiment [9] of 6.3 µg/mL (≈ 14.4 µM). Besides, in experiment [10], the MIC MH 6357 is 3.1 µg/mL (≈ 7.09 µM).
Consider `CC(C)[C@H](NC(=O)c1ccc(C#Cc2ccc(CNCc3nccs3)cc2)cc1)C(=O)NO` [Compound 199], for which the MIC PM 6391 in experiment [1] was at most 0.1 µg/mL. Besides, the MIC PM 12080 in experiment [2] is at most 0.1 µg/mL. This molecule also had an MIC PM 6267 in experiment [3] of at most 0.1 µg/mL. In addition, in experiment [4], the MIC MH 12587 was determined as 0.4 µg/mL (≈ 0.865 µM). Also, the MIC MH 10720 in experiment [5] was at most 0.1 µg/mL. Also, the MIC MH 13065 in experiment [6] is 0.2 µg/mL (≈ 0.432 µM). Moreover, the MIC PM 10775 in experiment [7] is at most 0.1 µg/mL. This molecule yielded an MIC MH 13093 in experiment [8] of 0.4 µg/mL (≈ 0.865 µM). This molecule displayed an MIC MH 6374 in [9] of 0.4 µg/mL (≈ 0.865 µM). Besides, the MIC MH 6357 in [10] amounted to 0.2 µg/mL (≈ 0.432 µM).
